Measurements published in US20180127800A1 (priority 2016, published 2018).

Biological target: HIV-1 protease (Human immunodeficiency virus type 1 group M subtype B, UniProt P04585)
Assay type: cell-based
Conditions: Gal4/PR cell line induced by Dox, incubated with protease inhibitor
Source text: This type of cleavage was successfully monitored by a previously developed assay for HIV-1. The assay was developed in mammalian cells and relied on an engineered Gal4/protease fusion protein that travels to the nucleus and activates the GFP reporter gene when inhibited. The activation or lack thereof of the reporter GFP gene can be measured and quantified via flow cytometry.
In the absence of Dox, rtTA cannot bind to the Tet-Responsive Element (TRE) and consequently, there is no GFP expression from the reporter construct. In the presence of Dox, rtTA binds to TRE and induces GFP expression. […] In the presence of Dox, PR/Gal4 is expressed; however, its autocatalytic activity results in the separation of the Gal4 domains, resulting in turn in the lack of GFP expression. However, in the presence of protease inhibitor (PI), the PR/Gal4 fusion remains intact, resulting in the induction of GFP expression.
The plasmids include the rtTA, GFP reporter and Gal4 fusions. The Gal4 plasmids include Gal4 control, Gal4/PRm (mutant) and Gal4/PR.
In order to be able to easily discriminate between cleaved and non-cleaved events (or active and non-active protease), the assay relied on the classical Gal4/UAS system broadly used in gene expression experiments. […]

CC(C)(C)NC(=O)[C@@H]1CN(Cc2cccnc2)CCN1C[C@@H](O)C[C@@H](Cc1ccccc1)C(=O)N[C@H]1c2ccccc2C[C@H]1O [Indinavir]
GFP expression of the PR cell line (flow cytometry): not green when induced by Dox, unless it is also incubated with the PI IDV
